Laboratory results from ChEMBL document CHEMBL1130487, “Development of a positron emission tomography radiopharmaceutical for imaging thymidine kinase gene expression: Synthesis and in vitro evaluation of 9-{3-[18F] Fluoro-1-hydroxy-2-propoxymethyl guanine” (1997).

Tests used:
Rattus norvegicus [1] = organism: Rattus norvegicus; assay: Anti proliferation activity determined; Weak effect; type: functional
Rattus norvegicus [2] = organism: Rattus norvegicus; assay: Inhibition of cell growth by compound at a concentration of 10 uM in 9Ltk+ cells; […]; type: functional, cell-based
[3] = Inhibition of cell growth by compound at a concentration of 10 uM in 9Ltk+ cells; type: functional; details: Rattus norvegicus
Rattus norvegicus [4] = organism: Rattus norvegicus; assay: Inhibition of cell growth by compound at a concentration of 100 uM in 9Ltk+ cells; Completely stopped the process; type: functional, cell-based

Nc1nc2c(ncn2COC(CO)CO)c(=O)[nH]1
Activity (Rattus norvegicus [1]): Weak effect
inhibition (Rattus norvegicus [2]): Completely stopped the process

Nc1nc(O)c2ncn(COC(CO)CF)c2n1 (centres undefined)
inhibition at 10 µM [3]: 50%

Nc1nc2c(ncn2COCCO)c(=O)[nH]1
inhibition (Rattus norvegicus [4]): Completely stopped the process
